In patent publication US9969753B2, “BCR-ABL diploid inhibitor, synthesizing method therefor, and uses thereof” (CHENGDU UNIVERSITY, priority 2014, dated 2018):

Assays:
c-Abl tyrosine kinase = c-Abl tyrosine kinase (Homo sapiens, UniProt P00519); experiment: Mobility Shift Assay, inhibition of kinase Abl in vitro; type: biochemical; conditions: 10 concentrations 100 μM to 0.005 μM
Protocol: (§1) Using the method of mobility Shift Assay, detect activity of the compound BGC with kinase Abl in vitro. The concentration of BGC was diluted from 100 μM with 100% DMSO to 0.005 μM using 3 times dilution method, 10 concentrations in total for detection (2 duplicate) with staurosporine as standard control, set solvent control (10% DMSO) and negative control (EDTA).
(§2) Detect activity of different concentrations of the compound BGC on 384 holes reaction plate by enzyme-linked immune response on the inhibition of the kinase Abl, read the conversion rate data on Caliper, and convert the conversion rate to inhibition rate. Percent inhibition=(max−conversion)/(max−min)*100
Wherein, max is the conversion rate of DMSO control; min refers to the conversion rate of enzyme-free control.
According to inhibition rate of the concentrations, calculate the half inhibitory concentration IC50 of the compound BGC to tyrosine kinase Abl.
as §1, with “Mobility” for “mobility”, “BP” for “BGC”
as §2, with “BP” for “BGC”
Wherein, max is the conversion rate of DMSO control, min refers to the conversion rate of enzyme-free control.
According to inhibition rate of the concentrations, calculate the half inhibitory concentration IC50 of the compound BP to tyrosine kinase c-Abl. […]
Detect activity of different concentrations of the compound BDB on 384 holes reaction plate by enzyme-linked immune response on the inhibition of the kinase Abl, read the conversion rate data on Caliper, and convert the conversion rate to inhibition rate. […]

[1] = tested on: KBM5 (human wild type Bcr-Abl) cells; experiment: KBM5 tumor growth inhibition test in vitro (ATP method); type: cell-based; conditions: 72 hours incubation, read-out: IC50, cytotoxicity to KBM5 cells
Protocol: (§3) Using ATP method to determine the cell toxicity of compound BGC of the present invention. Adjust the KBM5 cells to a suitable cell density. 140 ul cell suspensions inoculated each hole on 96-well plate. The vaccination density of each species cell is: 2000-6000; then the cell culture plate is placed in the incubator for 24 hours so that it is attached on the wall holes. Using 3 times dilution method to prepare the solution of BGC compound with different concentrations, and add them into the correspond holes on 96-well plate with vaccination in advance, 10 μL of each hole, and its final concentrations are as follows: 100 μM, 33.3 μM, 11.1 μM, 3.70 μM, 1.23 μM, 0.41 μM, 0.14 μM, 0.046 μM, 0.015 μM. Duplicate 3 times of each concentration. After 72 hours incubation in 37° C. incubator, detect the cell proliferation of each hole with ATP method, and calculate the drug concentration to median lethal concentration IC50 of KBM5 cells.
as §3, with “BP” for “BGC”, “KBM5 and KBM5R” for “KBM5”, “method” for “method,”
Using ATP method to determine the cell toxicity of compound BDB of the present invention. Adjust the KBM5 and KBM5R cells to a suitable cell density. 140 ul cell suspensions inoculated each hole on 96-well plate. […]

[2] = tested on: KBM5R (Bcr-Abl T315I mutation) cells; experiment: KBM5R tumor growth inhibition test in vitro (ATP method); type: cell-based; conditions: Homo sapiens, 72 hours incubation, read-out: IC50, cytotoxicity to KBM5R cells
Protocol: as §3, with “BP” for “BGC”, “KBM5 and KBM5R” for “KBM5”, “method” for “method,”
Using ATP method to determine the cell toxicity of compound BDB of the present invention. Adjust the KBM5 and KBM5R cells to a suitable cell density. 140 ul cell suspensions inoculated each hole on 96-well plate. The vaccination density of each species cell is: 2000-6000; then the cell culture plate is placed in the incubator for 24 hours so that it is attached on the wall holes. […]

[3] = tested on: KBM5 (Bcr-Abl positive) cell subcutaneous implanted tumor; experiment: Leukemia subcutaneous xenograft growth inhibition test, KBM5; type: in vivo, C57BL/6(Es-1^c) nude mice; conditions: dosed once a day for two weeks, tumor volume; for inhibitory effect compared with Imatinib in KBM5 subcutaneous tumor model: positive control 160 mg/Kg Imatinib
Description: According to the test results of the growth inhibition in vitro, assess inhibitory effect of the BGC to transplant subcutaneously in C57BL/6(Es-1^c) nude mice with human leukemia KBM5 cells growth.
Study tumor growth if it can be inhibited, slowed or cured. Twice a week or every other day, use a vernier caliper to measure the tumor size. The calculation formula of tumor volume: V=0.5a×b^2, a, b respectively represent the long and short radius of the tumor.
(§4) Data analysis: T test is used for the comparison between the two groups; one-way ANOVA is used between three or more groups. If there is a significant difference of f value, multiple comparisons should be used additional to ANOVA analysis. Two-way ANOVA is used to analyze potential synergies of combined drug group. All data analysis use SPSS 17.0; p<0.05 is considered with a significant difference.
According to the test results of the growth inhibition in vitro, select the minimum IC50 of the compound BP of the present invention, assess inhibitory effect of the BP to transplant subcutaneously in C57BL/6(Es-1^c) nude mice with human leukemia KBM5 and KBM5R cells growth.
According to the test results of the growth inhibition in vitro, select the minimum IC50 of the compound BDB of the present invention, assess inhibitory effect of the BDB to transplant subcutaneously in C57BL/6(Es-1^c) nude mice with human leukemia KBM5 and KBM5R cells growth.

[4] = tested on: KBM5R (Bcr-Abl T315I mutation) cell subcutaneous implanted tumor; experiment: Leukemia subcutaneous xenograft growth inhibition test, KBM5R; type: in vivo, C57BL/6(Es-1^c) nude mice; conditions: dosed once a day for two weeks, tumor volume; Imatinib 160 mg/Kg
Description: Twice a week or every other day, use a vernier caliper to measure the tumor size. The calculation formula of tumor volume: V=0.5a×b^2, a, b respectively represent the long and short radius of the tumor.
as §4

[5] = Preliminary pharmacokinetic study, single intravenous dosage; type: in vivo, female C57BL/6(Es-1^c) nude mice; conditions: female, C57BL/6(Es-1^c) nude, mouse, whole blood; intravenous 1 mg/kg, mice, non-compartmental model
Protocol: Experiment methods and procedures are as follows: female C57BL/6(Es-1^c) nude mice, weight 18-25 g, age 6-8 weeks, other, 3 female C57BL/6(Es-1^c) nude mice for blank samples, prepare for the standard curve for analysis. Intravenous dosage 1 mg/kg, delivery volume 5 mL/kg. Intravenous injection drug solution: DMSO:Solutol HS15:Saline=5:5:90, v/v/v. […] Female C57BL/6(Es-1^c) nude mice after intravenous injection dosage collect about 20 μL bloods from the mouse tail vein at 0.25 h, 2 h, 8 h and 24 h, use K2EDTA anticoagulant. Use steamed water to dilute the blood sample in accordance with volume in 3 times and store the diluted blood sample at −70° C. for analysis.
Data analysis: use WinNonlin (version 6.2) software, based on non-compartmental model to calculate the pharmacokinetic parameters.
Experiment methods and procedures are as follows: female C57BL/6(Es-1^c) nude mice, weight 18-25 g, age 6-8 weeks, other, 3 female C57BL/6(Es-1^c) nude mice for blank samples, prepare for the standard curve for analysis. Intravenous dosage 1 mg/kg, delivery volume 5 mL/kg. Intravenous injection drug solution: DMSO:Solutol HS15:Saline=5:5:90, v/v/v. […] Female C57BL/6(Es-1^c) nude mice after intravenous injection dosage collect about 20 μL blood from the mouse tail vein at 0.25h, 2h, 8h and 24 h, use K2EDTA anticoagulant. Use steamed water to dilute the blood sample in accordance with volume in 3 times and store the diluted blood sample at −70° C. for analysis.
Experiment methods and procedures are as follows: female C57BL/6(Es-1^c) nude mice, weight 18-25 g, age 6-8 weeks, other, 3 female C57BL/6(Es-1^c) nude mice for blank samples, prepare for the standard curve for analysis. Intravenous dosage 1 mg/kg, delivery volume 5 mL/kg.

Chain of c-Abl tyrosine kinase (P00519 whole entry): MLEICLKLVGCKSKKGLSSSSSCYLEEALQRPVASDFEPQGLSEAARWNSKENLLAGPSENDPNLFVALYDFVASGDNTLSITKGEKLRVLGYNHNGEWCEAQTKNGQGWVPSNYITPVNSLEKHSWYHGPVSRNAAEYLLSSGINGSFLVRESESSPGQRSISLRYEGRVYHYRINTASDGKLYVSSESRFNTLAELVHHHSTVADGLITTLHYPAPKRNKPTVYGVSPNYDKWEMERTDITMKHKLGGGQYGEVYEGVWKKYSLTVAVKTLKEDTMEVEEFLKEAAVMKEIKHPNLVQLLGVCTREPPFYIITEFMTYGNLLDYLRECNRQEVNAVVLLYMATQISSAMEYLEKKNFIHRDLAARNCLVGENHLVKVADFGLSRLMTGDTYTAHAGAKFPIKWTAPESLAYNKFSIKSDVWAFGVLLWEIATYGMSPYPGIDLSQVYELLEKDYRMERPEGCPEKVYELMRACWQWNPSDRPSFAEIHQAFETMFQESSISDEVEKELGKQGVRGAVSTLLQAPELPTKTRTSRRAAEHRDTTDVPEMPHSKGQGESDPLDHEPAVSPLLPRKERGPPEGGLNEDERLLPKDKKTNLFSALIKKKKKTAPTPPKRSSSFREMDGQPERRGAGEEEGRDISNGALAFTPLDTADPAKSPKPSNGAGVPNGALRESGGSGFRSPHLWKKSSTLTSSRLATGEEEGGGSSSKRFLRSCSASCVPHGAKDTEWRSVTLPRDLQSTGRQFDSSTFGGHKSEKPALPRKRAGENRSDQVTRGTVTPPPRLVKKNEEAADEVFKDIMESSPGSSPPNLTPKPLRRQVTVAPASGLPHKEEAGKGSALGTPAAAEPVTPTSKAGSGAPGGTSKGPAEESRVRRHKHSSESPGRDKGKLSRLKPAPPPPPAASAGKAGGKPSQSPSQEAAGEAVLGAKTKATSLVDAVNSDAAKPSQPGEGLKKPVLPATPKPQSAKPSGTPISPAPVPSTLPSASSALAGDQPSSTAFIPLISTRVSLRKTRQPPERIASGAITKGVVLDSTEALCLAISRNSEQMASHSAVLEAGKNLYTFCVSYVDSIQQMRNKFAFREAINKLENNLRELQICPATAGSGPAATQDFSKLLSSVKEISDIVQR

SMILES | IC50 (c-Abl tyrosine kinase) | IC50 [1] | IC50 [2] | anti-tumor efficacy in KBM5 subcutaneous tumor model [3] | inhibitory effect compared with Imatinib in KBM5 subcutaneous tumor model [3] | anti-tumor efficacy in KBM5R subcutaneous tumor model [4] | half-life [5]
CO[C@H](C(=O)N1Cc2[nH]nc(NC(=O)c3ccc(CN4CCN(CCC(=O)NCCCOCCOCCOCCCNC(=O)CCCC(=O)NCCCOCCOCCOCCCNC(=O)CCN5CCN(Cc6ccc(C(=O)Nc7n[nH]c8c7CN(C(=O)[C@H](OC)c7ccccc7)C8)cc6)CC5)CC4)cc3)c2C1)c1ccccc1 [compound BDB] | 0.05 µM | 7 µM | 8.9 µM | has anti-tumor efficacy | same inhibitory effect with a dosage of 80 mg/kg as Imatinib of 160 mg/kg | has anti-tumor efficacy | 3.8 h
Cc1ccc(NC(=O)c2ccc(CN3CCN(CCC(=O)NCCCOCCOCCOCCCNC(=O)CCCC(=O)NCCCOCCOCCOCCCNC(=O)CCN4CCN(Cc5ccc(C(=O)Nc6ccc(C)c(Nc7nccc(-c8cccnc8)n7)c6)cc5)CC4)CC3)cc2)cc1Nc1nccc(-c2cccnc2)n1 [compound BGC] | 0.02 µM | 9 µM |  | has anti-tumor efficacy | same inhibitory effect with a dosage of 350 mg/kg as Imatinib of 160 mg/kg |  | 3.5 h
Cc1ccc(C(=O)Nc2ccc(CN3CCN(CCC(=O)NCCCOCCOCCOCCCNC(=O)CCCC(=O)NCCCOCCOCCOCCCNC(=O)CCN4CCN(Cc5ccc(NC(=O)c6ccc(C)c(C#Cc7cnc8cccnn78)c6)cc5C(F)(F)F)CC4)CC3)c(C(F)(F)F)c2)cc1C#Cc1cnc2cccnn12 [compound BP] | 0.01 µM | 2 µM | 5 µM | has anti-tumor efficacy | same inhibitory effect with a dosage of 80 mg/kg as Imatinib of 160 mg/kg | has anti-tumor efficacy | 3.5 h
